Test results reported in BindingDB's records for doi:10.1016/j.bmcl.2005.02.084 (Bristol-Myers Squibb Pharmaceutical Research Institute, 2005).

Assay: Inhibitory concentration in CCR4-transfected murine pre-B L1.2 cells (chemotaxis assay)

CCN(CC)CCCC(C)Nc1nccc(NCc2ccc(Cl)cc2Cl)n1 (stereo unspecified) [N*4*-(2,4-Dichloro-benzyl)-N*2*-(4-diethylamino-1-methyl-butyl)-pyrimidine-2,4-diamine]
IC50: 5 µM
